This passage reports IC50 and Emax results from patent US12410179B2, “Modulators of TNF alpha activity and uses thereof” (RayThera, Inc., priority 2023, dated 2025).

By pIC50 is commonly meant −log10 of the IC50, conventionally taken in molar units. Broadly, the Emax is the greatest response seen or fitted, relative to the assay's reference.

pIC50: −log10 of the molar value. Some results are limits rather than exact numbers.

In the first assay the target is TNFα (Homo sapiens, UniProt P01375). In words: HEK-Blue hTNFα reporter assay. More on the design: purchased R&D biosystem (R&D Systems) 210-TA-020/CF. To be noted: HEK-Blue hTNFα reporter cells, SEAP readout; read-out: IC50 Range. In kind it is cell-based. The source says: Stimulation of HEK293 cells by TNFα leads to activation of the NF-κB pathway. The potency of compounds was examined in HEK-Blue™ hTNFα reporter cells (Invivogen, Cat #hkb-tnfdmyd). HEK-Blue™ TNFα cells were generated by stable transfection of HEK293 cell line with a SEAP reporter gene under the control of the […] minimal promoter fused to NF-κB binding sites. Stimulation of HEK-Blue™ TNFα cells with TNFα triggers the activation of the NF-κB-inducible promoter and the production of SEAP. Levels of SEAP in the supernatant can be easily determined using QUANTI-Blue™ Solution (Invivogen, cat #rep-qbs) by reading the OD at 620-655 nm.
Chain of TNFα (P01375 77-233 limits assumed): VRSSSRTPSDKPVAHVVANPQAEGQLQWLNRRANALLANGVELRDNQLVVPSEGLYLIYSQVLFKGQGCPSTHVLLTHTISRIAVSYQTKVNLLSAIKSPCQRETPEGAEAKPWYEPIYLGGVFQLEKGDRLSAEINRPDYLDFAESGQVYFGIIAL
HEK-Blue™ TNFα cells were cultured in DMEM supplemented with 10% FBS, 100p/mL penicillin, 100 μg/mL streptomycin, 100 μg/mL normocin, 1 μg/mL puromycin, and 100 μg/mL zeocin. The culture was maintained in culture incubator with 5% CO2 at 37° C. When used for assay, the cells were gently rinsed twice with pre-warmed phosphate buffered saline (PBS) and detached in presence of PBS by tapping the flask or by using a cell scraper. The cells were spun to remove PBS and resuspended in fresh, pre-warmed test medium (DMEM supplemented with 10% FBS, 100p/mL penicillin, and 100 μg/mL streptomycin). A serial dilution of work solution of tested compound was made in DMSO with 1000× of final concentration, and 40 nL of compound DMSO solution was transferred into 384-well plates (Corning 3764) by Echo, and incubated with 10 μL of recombinant hTNFα (R&D biosystem, Cat #210-TA-020/CF) for 1 h at 37° C. The compound/hTNFα mixture well received 30 μL HEK-Blue™ TNFα cell suspension at 10000 cells/well, and then incubated at 37° C. with 5% CO2 for 24 h. The final concentration of hTNFα is […]. After incubation, 5 μL of induced cell supernatant was transferred to a new 384-well plate well (Coring 3764) to mix with 45 μL of QUANTI-Blue Solution. After 1 h incubation at 37° C., the plate was read using a spectrophotometer at 620 nm.
The percentage of inhibition was calculated by the following formula: % inhibition=(positive control−Sample)/(positive control−negative control)*100 • Positive control: OD620 reading of cells with hTNFα stimulation. • Negative control: OD620 reading of cells without hTNFα stimulation. • Sample: OD620 reading of cells with compound at specific concentration and hTNFα stimulation
The % inhibition was plotted against compound concentration in logarithmic scale and the IC50 was rendered using 4-parameter nonlinear regression (GraphPad Prism).
In general terms: Reporter assays use an easily measured gene product as a stand-in for the process of interest.
Consider `CN1C(=O)c2ccnc(OC(F)F)c2[C@H]2C[C@@H]1c1nn3cc(F)c(-c4ccc(P(C)(C)=O)c(F)c4)cc3c12` [Example 159], for which the negative logarithm of the IC50 (pIC50) is > 7.60. On to `[2H]C([2H])([2H])N1C(=O)c2cccc(OC(F)F)c2[C@H]2C[C@@H]1c1nn3ccc(-c4cnc([C@](C)(O)CC#N)nc4)cc3c12` [Example 90], for which the pIC50 was > 7.60. In the case of `O=C1N[C@@H]2C[C@H](c3c(OC(F)F)cccc31)c1c2nn2ccc(-c3cnc(C4(O)CC(F)(F)C4)nc3)cc12` [Example 150], the pIC50 is > 7.60. On the same count and under the same terms, the same measure for `CN1C(=O)c2cccc(OC(F)F)c2[C@H]2C[C@@H]1c1nn3cc(F)c(-c4cnc(C5(N)CCC5)nc4)cc3c12` [Example 41]: > 7.60; for `[2H]C([2H])([2H])N1C(=O)c2cccc(OC(F)F)c2[C@H]2C[C@@H]1c1nn3ccc(-c4cnc([C@]5(N)C[C@@H](O)C5)nc4)nc3c12` [Example 204]: 7.00 to 7.60; for `[2H]C([2H])([2H])N1C(=O)c2cccc(OC(F)F)c2[C@H]2C[C@@H]1c1nn3cc(F)c(-c4cnc([C@]5(O)C[C@@](C)(N)C5)nc4)nc3c12` [Example 185]: 7.00 to 7.60. Same read-out and setting: the figure for `CN1C(=O)c2cccc(OC(F)F)c2[C@H]2C[C@@H]1c1nn3ccc(-c4cnc([C@@](C)(O)C5CC5)nc4)cc3c12` [Example 80] is > 7.60. The same measure, in the same setting: the figure for `CN1C(=O)c2cccc(OC(F)F)c2[C@H]2C[C@@H]1c1nn3cc(F)c(-c4cnc([C@]5(N)C[C@@](C)(C#N)C5)nc4)nc3c12` [Example 51] is > 7.60; for `[2H]C([2H])([2H])N1C(=O)c2cccc(OC(F)F)c2[C@H]2C[C@@H]1c1nn3ccc(-c4cnc(C5(N)COC5)cn4)cc3c12` [Example 247] it is > 7.60; for `CN1C(=O)c2cccc(OC(F)F)c2[C@H]2C[C@@H]1c1nn3cnc(-c4ccc(P(C)(C)=O)nc4)cc3c12` [Example 30] it is > 7.60. Turning to `CN1C(=O)c2cccc(OC(F)F)c2[C@H]2C[C@@H]1c1nn3ccc(-c4cnc([C@]5(O)C[C@@H](O)C5)nc4)cc3c12` [Example 82], the pIC50 is > 7.60.

Turning to `[2H]C([2H])([2H])N1C(=O)c2cccc(C#N)c2[C@H]2C[C@@H]1c1nn3ccc(-c4cnc([C@]5(N)C[C@@](C)(O)C5)c(F)c4)cc3c12` [Example 309], the negative logarithm of the IC50 (pIC50) was > 7.60. On to `CN1C(=O)c2cccc(OC(F)F)c2[C@H]2C[C@@H]1c1nn3ccc(-c4ccc([C@]5(N)C[C@@](C)(C(=O)O)C5)nc4)cc3c12` [Example 165], for which the negative logarithm of the IC50 (pIC50) was > 7.60. As to `[2H]C([2H])([2H])N1C(=O)c2cccc(OC(F)F)c2[C@H]2C[C@@H]1c1nn3cnc(-c4cnc([C@]5(N)C[C@@](C)(O)C5)nc4C)cc3c12` [Example 263], the pIC50 was > 7.60. On the same count and under the same terms, the same measure for `[2H]C([2H])([2H])N1C(=O)c2ccc(F)c(OC(F)F)c2[C@H]2C[C@@H]1c1nn3ccc(-c4cnc(C(C)(C)N)nc4)nc3c12` [Example 297]: > 7.60; for `CN1C(=O)c2cccc(OC(F)F)c2[C@H]2C[C@@H]1c1nn3ccc(-c4cnc([C@]5(O)C[C@](C)(O)C5)nc4)cc3c12` [Example 139]: > 7.60; for `CN1C(=O)c2cccc(OC(F)F)c2[C@H]2C[C@@H]1c1nn3ccc(-c4cnc([C@@](C)(O)CC#N)nc4)cc3c12` [Example 76]: > 7.60. The same measure, in the same setting: the figure for `CC(=O)c1cccc2c1[C@H]1C[C@H](c3nn4ccc(-c5cnc(C6(N)CCC6)nc5)cc4c31)N(C)C2=O` [Example 314, (7R,14R)-1-acetyl-12-(2-(1-aminocyclobutyl)pyrimidin-5-yl)-6-methyl-6,7-dihydro-7,14-methanobenzo[c]pyrido[1′,2′:1,5]pyrazolo[4,3-f]azocin-5 (14H)-one] is > 7.60; for `CN1C(=O)c2cccc(OC(F)F)c2[C@H]2C[C@@H]1c1nn3ccc(-c4cnc([C@]5(O)C[C@@](C)(O)C5)nc4)nc3c12` [Example 16] it is > 7.60.

As for `CN1C(=O)c2cccc(OC(F)F)c2[C@H]2C[C@@H]1c1nn3ccc(-c4cnc([C@@]5(O)CCOC5)nc4)cc3c12` [Example 64], the negative logarithm of the IC50 (pIC50) was > 7.60. Consider `[2H]C([2H])([2H])N1C(=O)c2cccc(OC(F)F)c2[C@H]2C[C@@H]1c1nn3cc(F)c(-c4cnc([C@]5(N)C[C@@](C)(O)C5)c(F)c4)nc3c12` [Example 188], for which the pIC50 is > 7.60.

With `[2H]C([2H])([2H])N1C(=O)c2cccc(OC(F)F)c2[C@H]2C[C@@H]1c1nn3ccc(-c4cnc([C@@](C)(N)CC#N)nc4)cc3c12` [Example 265], the pIC50 is > 7.60. `CN1C(=O)c2cccc(OC(F)F)c2[C@H]2C[C@@H]1c1nn3cc(F)c(-c4cnc([C@@](C)(O)CC#N)nc4)cc3c12` [Example 116]: the negative logarithm of the IC50 (pIC50) is > 7.60. For `[2H]C([2H])([2H])N1C(=O)c2cccc(OC(F)F)c2[C@H]2C[C@@H]1c1nn3ccc(-c4cnc(C5(N)CCC5)c(F)c4)nc3c12` [Example 221], the pIC50 is > 7.60. Regarding `CN1C(=O)c2cccc(OC(F)F)c2[C@H]2C[C@@H]1c1nn3ccc(-c4cnc([C@]5(O)CC[C@H](O)C5)nc4)cc3c12` [Example 111], the pIC50 is > 7.60. Take `CN1C(=O)c2cccc(OC(F)F)c2C2CC1c1nn3ccc(-c4cnc(C5(N)CCC5)nc4)nc3c12` (stereo not drawn) [Example 1, 12-(2-(1-aminocyclobutyl)pyrimidin-5-yl)-1-(difluoromethoxy)-6-methyl-6,7-dihydro-7,14-methanobenzo[c]pyrimido[1′,2′:1,5]pyrazolo[4,3-f]azocin-5 (14H)-one]: the pIC50 is 7.00 to 7.60. Still for that read-out and setting: the same measure for `C[C@@H](O)[C@H](O)c1ncc(-c2ccn3nc4c(c3c2)[C@@H]2C[C@H]4N(C)C(=O)c3cccc(OC(F)F)c32)cn1` [Example 119]: > 7.60; for `[2H]C([2H])([2H])N1C(=O)c2cccc(OC(F)F)c2[C@H]2C[C@@H]1c1nn3cc(F)c(-c4cnc([C@]5(N)C[C@@](C)(CO)C5)nc4)cc3c12` [Example 270]: > 7.60. `CN1C(=O)c2cccc(OC(F)F)c2[C@H]2C[C@@H]1c1nn3cc(F)c(-c4cnc([C@]5(O)C[C@@](C)(O)C5)cn4)cc3c12` [Example 43]: the pIC50 was > 7.60. In the case of `[2H]C([2H])([2H])N1C(=O)c2cccc(OC(F)F)c2[C@H]2C[C@@H]1c1nn3ccc(-c4cnc([C@]5(O)C[C@@](C)(O)C5)nc4)cc3c12` [Example 33], the pIC50 is > 7.60. In the case of `CN1C(=O)c2cccc(OC(F)F)c2[C@H]2C[C@@H]1c1nn3ccc(-c4cnc([C@](C)(O)C(F)F)nc4)cc3c12` [Example 74], the pIC50 was > 7.60. For the compound `[2H]C([2H])([2H])N1C(=O)c2cccc(OC(F)F)c2[C@H]2C[C@@H]1c1nn3cc(F)c(-c4cnc([C@]5(O)C[C@@](C)(N)C5)cn4)cc3c12` [Example 260], the pIC50 was 7.00 to 7.60. On the same count and under the same terms, the same measure for `C[C@]1(O)C[C@](N)(c2ncc(-c3ccn4nc5c(c4c3)[C@@H]3C[C@H]5N(C4CC4)C(=O)c4cccc(OC(F)F)c43)cn2)C1` [Example 329]: > 7.60; for `[2H]C([2H])([2H])N1C(=O)c2cccc(OC(F)F)c2[C@H]2C[C@@H]1c1nn3ccc(-c4cnc([C@]5(N)C[C@@](C)(O)C5)nc4)cc3c12` [Example 222]: > 7.60.

The same assay, now with this note: HEK-Blue hTNFα reporter cells; read-out: TNFα reporter, Emax.
For `CN1C(=O)c2cccc(OC(F)F)c2[C@H]2C[C@@H]1c1nc3ccc(-c4cnc([C@]5(N)C[C@@](C)(O)C5)c(F)c4)cc3n12` [Comp. Ex #2, reference compound], the maximal response (Emax) was 85%.

Staying with this assay, now noted: HEK-Blue hTNFα reporter cells; read-out: TNFα reporter, IC50.
Consider `CN1C(=O)c2cccc(OC(F)F)c2[C@H]2C[C@@H]1c1nc3ccc(-c4cnc([C@]5(N)C[C@@](C)(O)C5)c(F)c4)cc3n12` [Comp. Ex #2, reference compound], for which the pIC50 is 8.33.
